Assay results reported in patent US11180452B2, “Methods and compositions for selectively inhibiting pathogenic microbes” (priority 2019, dated 2021).
Converted amounts (≈) assume the structure as drawn. “And” between values parts separate entries of the source, which are not always exact repeats. Equal values may be shown once. Read-outs that look alike come from different tables or passages of the source.

Experiments:
[1] = system: Francisella tularensis subsp. Holarctica Strain LVSR NR-597; experiment: microbe, parasite or virus in culture; format: cell-based
[2] = system: Bacillus subtilis; experiment: Bacillus subtilis MIC / MBC; format: cell-based; details: for MBC: Bacillus subtilis NRRL: B-571, minimum bactericidal concentration; for MIC: Bacillus subtilis, Bacillus subtilis (Ehrenberg 1835) Cohn 1872 NRRL: B-571, read-out: MIC
[3] = system: Francisella tularensis strains; experiment: microbe, parasite or virus in culture; format: cell-based
[4] = system: N. gonorrhoeae; experiment: N. gonorrhoeae MIC; format: cell-based; details: Neisseria gonorrhoeae, strain #167
[5] = system: Bacillus thuringiensis; format: cell-based; details: Bacillus thuringiensis Berliner ATCC: 10792; for MIC: Bacillus thuringiensis, read-out: MIC
[6] = system: Candida glabrata; experiment: Candida glabrata MIC / MFC; format: cell-based; details: Nakaseomyces glabratus; for MIC: read-out: MIC
[7] = system: NoSpin HepaRG cells; experiment: HepaRG cytotoxicity, MTT assay EC50; format: cell-based, human; details: Homo sapiens, HepaRG; cytotoxicity EC50, Table 9
Method: Additionally, the antimicrobial compounds were analyzed for cytotoxicity. […] We utilized the standard MTT assay (Promega CellTiter 96) and GraphPad Prism 7 software to determine EC50 values for each analogue. Briefly, 20,000 HepG2 cells in 200 μl of the ATCC recommended media were seeded in each well of a 96-well plate with a moisture barrier created in the outermost wells. The cells were allowed to attach overnight at 37° C., and then observed under phase contrast microscopy for proper morphological characteristics. […] Once incubations were complete, the spectrophotometric absorbance of the samples was measured at a wavelength of 595 nm. […] For the HepaRG assay, NoSpin HepaRG™ cells (Lonza, cat #NSHPRG) were thawed and plated with 20,000 cells per well. They were allowed to attach for 4 h (optimal DME profile per Lonza's testing) before dosing following the identical protocol as above.

[8] = Toxicity in mice, body weight over 7 days; format: in vivo, Balb/c mice; details: for Animal body weight (kg) Day 0 / Animal body weight (kg) Day 1 / Animal body weight (kg) Day 2 / Animal body weight (kg) Day 3 / Animal body weight (kg) Day 4 / Animal body weight (kg) Day 5 / Animal body weight (kg) Day 6 / Animal body weight (kg) Day 7: mice, IP; for Animal body weight (kg) Day 0: Day 0, individual animals; for Animal body weight (kg) Day 1: Day 1, individual animals; for Animal body weight (kg) Day 2: Day 2, individual animals; for Animal body weight (kg) Day 3: Day 3, individual animals; for Animal body weight (kg) Day 4: Day 4, individual animals; for Animal body weight (kg) Day 5: Day 5, individual animals; for Animal body weight (kg) Day 6: Day 6, individual animals; for Animal body weight (kg) Day 7: Day 7, individual animals
Text: The vehicle is 40% PEG300 solution in 0.9% NaCl. […] Thus, the compounds are useful for in vivo antimicrobial administration.

[9] = system: Trichophyton rubrum; experiment: MIC against Trichophyton rubrum; format: cell-based; details: Trichophyton rubrum Castellani Sabouraud ATCC: 28188; read-out: MIC
[10] = system: Burkholderia thailandensis Brett et al ATCC: 700388; experiment: microbe, parasite or virus in culture; format: cell-based
[11] = system: C. albicans; experiment: Candida albicans MIC / MFC; format: cell-based
[12] = read-out: F. tularensis BSL-3 MIC, Strain 100
[13] = read-out: F. tularensis BSL-3 MIC, strain HN-63
[14] = read-out: F. tularensis BSL-3 MIC, strain LVS
[15] = read-out: F. tularensis BSL-3 MIC, strain MA00-2987
[16] = read-out: F. tularensis BSL-3 MIC, strain MO #1
[17] = read-out: F. tularensis BSL-3 MIC, strain MO #2
[18] = read-out: F. tularensis BSL-3 MIC, strain MO #3
[19] = read-out: F. tularensis BSL-3 MIC, strain OR-96
[20] = read-out: F. tularensis BSL-3 MIC, strain SCHU S4
[21] = read-out: F. tularensis BSL-3 MIC, strain WY-96
[22] = read-out: MAX, highest MIC over the Francisella tularensis strains
[23] = read-out: MIN, lowest MIC over the Francisella tularensis strains
[24] = Candida glabrata #584 (Table 2)

`FC(F)(F)c1ccccc1Sc1c[nH]c2ccc(Br)cc12` [Compound 174AV, 5-bromo-3-((2-(trifluoromethyl)phenyl)thio)-1H-indole] gave an MIC [1] of 1 µg/mL (≈ 2.69 µM), an MBC [2] of 2 µg/mL (≈ 5.37 µM) and an MIC [2] of 1 µg/mL (≈ 2.69 µM). For the same compound, the MIC50 [3] was 4 µg/mL (≈ 10.7 µM), the MIC [3, 12] was 6 µg/mL (≈ 16.1 µM) and the MIC [3, 13] was 4 µg/mL (≈ 10.7 µM). The MIC [3, 14] was 4 µg/mL (≈ 10.7 µM), the MIC [3, 15] was 3.67 µg/mL (≈ 9.86 µM) and the MIC [3, 16] was 3 µg/mL (≈ 8.06 µM). It also gave an MIC [3, 17] of 2 µg/mL (≈ 5.37 µM), an MIC [3, 18] of 4 µg/mL (≈ 10.7 µM) and an MIC [3, 19] of 4 µg/mL (≈ 10.7 µM). The MIC [3, 20] was 4 µg/mL (≈ 10.7 µM), the MIC [3, 21] was 4 µg/mL (≈ 10.7 µM) and the MIC [3, 22] was 6 µg/mL (≈ 16.1 µM). It also gave an MIC [3, 23] of 2 µg/mL (≈ 5.37 µM), an MIC [4] of 3.12 µg/mL (≈ 8.4 µM) and an MBC [5] of 1 µg/mL (≈ 2.69 µM). For the same compound, the MIC [5] was 1 µg/mL (≈ 2.69 µM) and the MIC [6, 24] was 25 µg/mL (≈ 67.2 µM).
For `Cc1[nH]c2ccc(Br)cc2c1Sc1ccccc1Br` [Compound 174AZ, 5-bromo-3-((2-bromophenyl)thio)-2-methyl-1H-indole], the MIC [1] was 1 µg/mL (≈ 2.52 µM), the EC50 [7] was 25.8 µg/mL (≈ 65 µM) and the MBC [2] was 4 µg/mL (≈ 10.1 µM). It also gave an MIC [2] of 1 µg/mL (≈ 2.52 µM), an MIC50 [3] of 2 µg/mL (≈ 5.04 µM) and an MIC [3, 12] of 4 µg/mL (≈ 10.1 µM). For the same compound, the MIC [3, 13] was 2 µg/mL (≈ 5.04 µM), the MIC [3, 14] was 2.67 µg/mL (≈ 6.72 µM) and the MIC [3, 15] was 2 µg/mL (≈ 5.04 µM). It also gave an MIC [3, 16] of 1.33 µg/mL (≈ 3.35 µM), an MIC [3, 17] of 1 µg/mL (≈ 2.52 µM) and an MIC [3, 18] of 2 µg/mL (≈ 5.04 µM). The MIC [3, 19] was 2 µg/mL (≈ 5.04 µM), the MIC [3, 20] was 4 µg/mL (≈ 10.1 µM) and the MIC [3, 21] was 2 µg/mL (≈ 5.04 µM). For the same compound, the MIC [3, 22] was 4 µg/mL (≈ 10.1 µM), the MIC [3, 23] was 1 µg/mL (≈ 2.52 µM) and the “toxicity in mice by body weight” value ([8]; 6-week-old Balb/c mice, body weight over 7 days, vehicle 40% PEG300 in 0.9% NaCl) was “did not have significant toxicity”. For the same compound, the “Animal body weight (kg) Day 0” value ([8]; 0.1 mg/kg, 0.1 mg/kg) was 0.023 kg (2×) and 0.025 kg, the “Animal body weight (kg) Day 1” value ([8]; 0.1 mg/kg, 0.1 mg/kg) was 0.022 kg and 0.024 kg and 0.023 kg and the “Animal body weight (kg) Day 2” value ([8]; 0.1 mg/kg, 0.1 mg/kg) was 0.022 kg and 0.025 kg and 0.023 kg. For the same compound, the “Animal body weight (kg) Day 3” value ([8]; 0.1 mg/kg, 0.1 mg/kg) was 0.022 kg and 0.025 kg and 0.023 kg, the “Animal body weight (kg) Day 4” value ([8]; 0.1 mg/kg, 0.1 mg/kg) was 0.023 kg (2×) and 0.025 kg and the “Animal body weight (kg) Day 5” value ([8]; 0.1 mg/kg, 0.1 mg/kg) was 0.022 kg and 0.025 kg and 0.023 kg. The “Animal body weight (kg) Day 6” value ([8]; 0.1 mg/kg, 0.1 mg/kg) was 0.022 kg and 0.025 kg and 0.023 kg, the “Animal body weight (kg) Day 7” value ([8]; 0.1 mg/kg, 0.1 mg/kg) was 0.022 kg (2×) and 0.025 kg and the “Animal body weight (kg) Day 0” value ([8]; 1 mg/kg, 1 mg/kg) was 0.024 kg (2×) and 0.025 kg. The “Animal body weight (kg) Day 1” value ([8]; 1 mg/kg, 1 mg/kg) was 0.023 kg and 0.024 kg (2×), the “Animal body weight (kg) Day 2” value ([8]; 1 mg/kg) was 0.024 kg and the “Animal body weight (kg) Day 3” value ([8]; 1 mg/kg, 1 mg/kg) was 0.025 kg and 0.024 kg (2×). The “Animal body weight (kg) Day 4” value ([8]; 1 mg/kg, 1 mg/kg) was 0.025 kg (2×) and 0.024 kg, the “Animal body weight (kg) Day 5” value ([8]; 1 mg/kg, 1 mg/kg) was 0.025 kg and 0.023 kg and 0.024 kg and the “Animal body weight (kg) Day 6” value ([8]; 1 mg/kg, 1 mg/kg) was 0.025 kg and 0.024 kg (2×). For the same compound, the “Animal body weight (kg) Day 7” value ([8]; 1 mg/kg, 1 mg/kg) was 0.025 kg and 0.023 kg and 0.024 kg, the “Animal body weight (kg) Day 0” value ([8]; 10 mg/kg, 10 mg/kg) was 0.023 kg (2×) and 0.024 kg and the “Animal body weight (kg) Day 1” value ([8]; 10 mg/kg, 10 mg/kg) was 0.022 kg (2×) and 0.023 kg. For the same compound, the “Animal body weight (kg) Day 2” value ([8]; 10 mg/kg, 10 mg/kg) was 0.022 kg and 0.023 kg (2×), the “Animal body weight (kg) Day 3” value ([8]; 10 mg/kg, 10 mg/kg) was 0.022 kg (2×) and 0.023 kg and the “Animal body weight (kg) Day 4” value ([8]; 10 mg/kg) was 0.023 kg. For the same compound, the “Animal body weight (kg) Day 5” value ([8]; 10 mg/kg) was 0.023 kg, the “Animal body weight (kg) Day 6” value ([8]; 10 mg/kg, 10 mg/kg) was 0.022 kg (2×) and 0.023 kg and the “Animal body weight (kg) Day 7” value ([8]; 10 mg/kg, 10 mg/kg) was 0.023 kg (2×) and 0.022 kg. The MIC [4] was 3.12 µg/mL (≈ 7.87 µM), the MBC [5] was 8 µg/mL (≈ 20.1 µM) and the MIC [5] was 1 µg/mL (≈ 2.52 µM). The MIC [6, 24] was > 50 µg/mL.
`Clc1ccc2[nH]cc(Sc3ccc(Br)cc3)c2c1` [Compound 174C, 3-((4-bromophenyl)thio)-5-chloro-1H-indole] gave an MIC [1] of 1.56 µg/mL (≈ 4.61 µM), an EC50 [7] of 25.4 µg/mL (≈ 75 µM) and an MIC [9] of 2.11 µg/mL (≈ 6.23 µM). It also gave an MBC [2] of 3.13 µg/mL (≈ 9.24 µM), an MIC [2] of 1.56 µg/mL (≈ 4.61 µM) and an MBC [5] of 1.56 µg/mL (≈ 4.61 µM). The MIC [5] was 1.56 µg/mL (≈ 4.61 µM), the MIC [6, 24] was 3.13 µg/mL (≈ 9.24 µM) and the MIC [10] was > 50 µg/mL.
With `Brc1ccc(Sc2c[nH]c3cccc(Br)c23)cc1` [Compound 174D, 4-bromo-3-((4-bromophenyl)thio)-1H-indole] the MIC ([11]; C. albicans strain #761, read-out: MIC) was > 50 µg/mL, the MFC ([11]; C. albicans strain #762, read-out: MFC) was 12.5 µg/mL (≈ 32.6 µM) and the MIC [1] was 1.56 µg/mL (≈ 4.07 µM). For the same compound, the EC50 [7] was 23.2 µg/mL (≈ 60.6 µM), the MIC [9] was 2.38 µg/mL (≈ 6.21 µM) and the MIC [2] was 1.56 µg/mL (≈ 4.07 µM). For the same compound, the MBC [5] was 3.13 µg/mL (≈ 8.17 µM), the MIC [5] was 1.56 µg/mL (≈ 4.07 µM) and the MIC ([6]; C. glabrata strain #325) was > 50 µg/mL. For the same compound, the MIC [10] was > 50 µg/mL.
For `Clc1ccc(Sc2c[nH]c3ccc(Br)cc23)cc1` [Compound 174J, 5-bromo-3-((4-chlorophenyl)thio)-1H-indole], the EC50 [7] was 25.3 µg/mL (≈ 74.7 µM), the MIC [9] was 1.05 µg/mL (≈ 3.1 µM) and the MBC [2] was 3.13 µg/mL (≈ 9.24 µM). The MIC [2] was 1.56 µg/mL (≈ 4.61 µM), the MBC [5] was 1.56 µg/mL (≈ 4.61 µM) and the MIC [5] was 1.56 µg/mL (≈ 4.61 µM). The MFC ([6]; Candida glabrata #584 (Table 2), minimum fungicidal concentration, read-out: MFC) was > 50 µg/mL, the MIC [6, 24] was 6.25 µg/mL (≈ 18.5 µM) and the MIC [10] was > 50 µg/mL.
